Test results taken from patent publication US6352722B1, “Derivatized carbohydrates, compositions comprised thereof and methods of use thereof” (Quadrant Holdings Cambridge Limited, priority 1997, dated 2002).

Assay: Glass transition temperature (Tg) of derivatized carbohydrates, by DSC
Assay type: physicochemical
Conditions: derivatized carbohydrate alone, Tables 1-4
Description: The reaction product can be characterized structurally by methods known in the art, including, but not limited to, nuclear magnetic resonance spectroscopy (NMR) and its material science properties characterized by differential scanning calorimetry (DSC). The characteristic melting points and Tgs (glass transition temperatures) for the derivatized carbohydrates can also be determined by DSC and other methods known in the art.
The carbohydrate derivatives were routinely synthesized by standard esterification of the carbohydrate with the chloride of the desired hydrocarbon side chain under anhydrous conditions and the resulting derivatives purified by standard techniques of solvent extraction and re-crystallization. For example, trehalose octa-3,3-dimethylbutyrate was synthesized by reacting 3,3,-dimethylbutyroyl chloride with trehalose in anhydrous pyridine, followed by extraction with ether, hydrochloric acid, potassium carbonate solution and water and finally re-crystallized twice from alcohol to yield colorless, needle-like crystals (˜80% yield) of m.pt 138-140° C., αD 112°. Trehalose hexa-3,3-dimethylbutyrate (THEX) can be prepared by protecting the 6,6′-hydroxy group of trehalose with a bulky group such as trityl or t-butyldiphenylsilyl, for example by heating trehalose and trityl chloride in pyridine. The 6,6′-ditrityltrehalose can be acylated with 3,3-dimethylbutyroyl chloride in pyridine to give 6,6′-ditritylhexa-3,3-dimethylbutyryltrehalose. The trityl group can be removed by strong acid, for example hydrogen bromide in acetic acid, to give THEX. TACT can be prepared by acylating THEX with acetic anhydride in pyridine. Suitable work-up yields the HDC in crystalline form. The physical characteristics, melting points and glass transition temperatures (Tg, ° C.) of selected carbohydrate derivatives are shown in Tables 1-5.

Compound | Tg(° C.)
CCC(=O)OCC1O[C@@H](O[C@H]2OC(COC(=O)CC)[C@@H](OC(=O)CC)[C@H](OC(=O)CC)C2OC(=O)CC)C(OC(=O)CC)C(OC(=O)CC)[C@H]1OC(=O)CC (some centres unmarked) [Trehalose octapropionate, reference compound] | 3 °C
CCC(C)(C)C(=O)OC[C@H]1O[C@H](O[C@H]2O[C@H](COC(=O)C(C)(C)CC)[C@@H](OC(C)=O)[C@H](OC(C)=O)[C@H]2OC(C)=O)[C@H](OC(C)=O)[C@@H](OC(C)=O)[C@@H]1OC(C)=O [Trehalose 6,6′di-(2,2-dimethylbutyrate) hexaacetate] | 47 °C
CC(C)(C)CC(=O)OC[C@H]1O[C@@H](O[C@H]2[C@H](OC(=O)CC(C)(C)C)[C@@H](OC(=O)CC(C)(C)C)[C@@H](OC(=O)CC(C)(C)C)O[C@@H]2COC(=O)CC(C)(C)C)[C@H](OC(=O)CC(C)(C)C)[C@@H](OC(=O)CC(C)(C)C)[C@H]1OC(=O)CC(C)(C)C [α-Lactose octa-3,3-dimethyl-butyrate] | 53 °C
CC(C)(C)C(=O)OC[C@H]1O[C@@H](O[C@H]2[C@H](OC(=O)C(C)(C)C)[C@@H](OC(=O)C(C)(C)C)[C@H](OC(=O)C(C)(C)C)O[C@@H]2COC(=O)C(C)(C)C)[C@H](OC(=O)C(C)(C)C)[C@@H](OC(=O)C(C)(C)C)[C@H]1OC(=O)C(C)(C)C [β-Lactose octapivalate] | 88 °C
CCCC(=O)OC[C@H]1O[C@H](O[C@H]2O[C@H](COC(=O)CCC)[C@@H](OC(=O)CCC)[C@H](OC(=O)CCC)[C@H]2OC(=O)CCC)[C@H](OC(=O)CCC)[C@@H](OC(=O)CCC)[C@@H]1OC(=O)CCC [Trehalose octabutyrate, reference compound] | syrup
CC(=O)OC[C@H]1O[C@@H](O[C@H]2[C@H](OC(C)=O)[C@@H](OC(C)=O)[C@H](OC(C)=O)O[C@@H]2COC(C)=O)[C@H](OC(C)=O)[C@@H](OC(C)=O)[C@H]1OC(C)=O [β-Lactose octaacetate, reference compound] | 63 °C
CC(=O)O[C@@H]1[C@@H](OC(=O)CC(C)(C)C)[C@@H](OC(=O)CC(C)(C)C)O[C@H](COC(=O)CC(C)(C)C)[C@H]1O[C@@H]1O[C@H](COC(=O)CC(C)(C)C)[C@H](OC(=O)CC(C)(C)C)[C@H](OC(=O)CC(C)(C)C)[C@H]1OC(=O)CC(C)(C)C [α-Lactose 3-acetyl-hepta-3,3-dimethylbutyrate] | 48 °C
CCC(CC)C(=O)OC[C@H]1O[C@H](O[C@H]2O[C@H](COC(=O)C(CC)CC)[C@@H](OC(C)=O)[C@H](OC(C)=O)[C@H]2OC(C)=O)[C@H](OC(C)=O)[C@@H](OC(C)=O)[C@@H]1OC(C)=O [Trehalose 6,6′-di-(2-ethylbutyrate) hexaacetate] | 30 °C
CC(=O)OC[C@H]1O[C@@H](O[C@H]2[C@H](OC(C)=O)[C@@H](OC(C)=O)[C@@H](OC(C)=O)O[C@@H]2COC(C)=O)[C@H](OC(C)=O)[C@@H](OC(C)=O)[C@H]1OC(C)=O [α-Lactose octaacetate, reference compound] | 70 °C
CCCCC(=O)OCC1OC(OC2OC(COC(=O)CCCC)C(OC(=O)CCCC)C(OC(=O)CCCC)C2OC(=O)CCCC)C(OC(=O)CCCC)C(OC(=O)CCCC)C1OC(=O)CCCC (centres unmarked) [Trehalose octavalerate, reference compound] | syrup
CC(=O)OC1C(COC(=O)C(C)(C)C)OC(OC2OC(COC(=O)C(C)(C)C)C(OC(C)=O)C(OC(C)=O)C2OC(C)=O)C(OC(C)=O)C1OC(C)=O (centres unmarked) [Trehalose 6,6′ dipivalate hexaacetate] | 56 °C
Trehalose tetrapivalate | 96 °C
CC(C)C(=O)OCC1O[C@H](OCC2O[C@@H](O[C@]3(COC(=O)C(C)C)O[C@H](COC(=O)C(C)C)[C@@H](OC(=O)C(C)C)[C@H]3OC(=O)C(C)C)C(OC(=O)C(C)C)[C@@H](OC(=O)C(C)C)[C@@H]2OC(=O)C(C)C)C(OC(=O)C(C)C)[C@@H](OC(=O)C(C)C)[C@H]1OC(=O)C(C)C (some centres unmarked) [Raffinose undeca-isobutyrate] | 15 °C
CCO[C@@H]1O[C@H](COC(C)=O)[C@@H](O[C@@H]2O[C@H](COC(C)=O)[C@@H](OC(C)=O)[C@H](OC(C)=O)[C@H]2OC(C)=O)[C@H](OC(C)=O)[C@H]1OC(C)=O [β-Cellobiose ethyl heptaacetate] | 52 °C
Trehalose heptapivalate | 73 °C
CCC(=O)OC1C(COC(C)=O)OC(OC2OC(COC(C)=O)C(OC(=O)CC)C(OC(C)=O)C2OC(C)=O)C(OC(C)=O)C1OC(C)=O (centres unmarked) [Trehalose 4,4′-dipropionate hexaactetate] | 42 °C
CC(=O)OC1C(COC(=O)C(C)C)OC(OC2OC(COC(=O)C(C)C)C(OC(C)=O)C(OC(C)=O)C2OC(C)=O)C(OC(C)=O)C1OC(C)=O (centres unmarked) [Trehalose 6,6′-diisobutyrate hexaacetate] | 42 °C
CC(C)C(=O)OCC1O[C@@H](O[C@H]2OC(COC(=O)C(C)C)[C@@H](OC(=O)C(C)C)[C@H](OC(=O)C(C)C)C2OC(=O)C(C)C)C(OC(=O)C(C)C)C(OC(=O)C(C)C)[C@H]1OC(=O)C(C)C (some centres unmarked) [Trehalose octaisobutyrate] | 7 °C
CO[C@@H]1O[C@H](COC(C)=O)[C@@H](O[C@@H]2O[C@H](COC(C)=O)[C@@H](OC(C)=O)[C@H](OC(C)=O)[C@H]2OC(C)=O)[C@H](OC(C)=O)[C@H]1OC(C)=O [β-Cellobiose methyl heptaacetate] | 77 °C
CCC(=O)OC[C@H]1O[C@H](O[C@H]2O[C@H](COC(=O)CC)[C@@H](OC(C)=O)[C@H](OC(C)=O)[C@H]2OC(C)=O)[C@H](OC(C)=O)[C@@H](OC(C)=O)[C@@H]1OC(C)=O [Trehalose 6,6′-dipropionate hexaactetate] | 43 °C
CC(=O)O[C@@H]1[C@@H](OC(C)=O)[C@@H](O[C@H]2O[C@H](COC(=O)CC(C)(C)C)[C@@H](OC(C)=O)[C@H](OC(C)=O)[C@H]2OC(C)=O)O[C@H](COC(=O)CC(C)(C)C)[C@H]1OC(C)=O [Trehalose 6,6′-di-(3,3-dimethylbutyrate) hexaacetate] | 50 °C
CC(=O)OCC1OC(OC2OC(COC(C)=O)C(OC(=O)C(C)C)C(OC(C)=O)C2OC(C)=O)C(OC(C)=O)C(OC(C)=O)C1OC(=O)C(C)C (centres unmarked) [Trehalose 4,4′-diisobutyrate hexaacetate] | 41 °C
CC(=O)OC[C@H]1O[C@@H](O[C@H]2[C@H](OC(C)=O)[C@@H](OC(C)=O)[C@H](OC(=O)C(C)C)O[C@@H]2COC(C)=O)[C@H](OC(C)=O)[C@@H](OC(C)=O)[C@H]1OC(C)=O [β-Lactose isobutyrate heptaacetate] | 60 °C
Trehalose pentapivalate | 81 °C
CC(=O)OC[C@H]1O[C@@H](O[C@H]2[C@H](OC(C)=O)[C@@H](OC(C)=O)C(OC(C)=O)O[C@@H]2COC(C)=O)[C@H](OC(C)=O)[C@@H](OC(C)=O)[C@H]1OC(C)=O (stereo partly drawn) [α, β-Lactose octaacetate, reference compound] | 67 °C
CCC(=O)OC[C@H]1O[C@@H](O[C@H]2[C@H](OC(=O)CC)[C@@H](OC(=O)CC)[C@H](OC(=O)CC)O[C@@H]2COC(=O)CC)[C@H](OC(=O)CC)[C@@H](OC(=O)CC)[C@@H]1OC(=O)CC [β-Cellobiose octapropionate, reference compound] | 15 °C
